“And” between values parts separate entries of the source, which are not always exact repeats. Equal values may be shown once. HELM strings list units from the 5' end as sugar, base in round brackets, then linkage (d deoxyribose, r ribose, m 2'-O-methyl, p phosphodiester). Strings are as the collection lists them, not checked against the first reports. ss, as = sense and antisense strand; [una] = unlocked nucleic acid
Conditions: siRNA
Further: test system not given here.

Substance	target mRNA knockdown
RNA1{r(G)p.r(U)p.r(A)p.r(U)p.r(G)p.r(A)p.r(C)p.r(C)p.r(G)p.r(A)p.r(C)p.r(U)p.r(A)p.r(C)p.r(G)p.r(C)p.r(G)p.r(U)p.r(A)p.r(T)p.r(T)}|RNA2{r(U)p.r(U)p.[una](C)p.r(A)p.r(G)p.r(U)p.r(G)p.r(U)p.r(G)p.r(A)p.r(U)p.r(G)p.r(A)p.r(C)p.r(A)p.r(C)p.r(U)p.r(U)p.r(G)p.r(T)p.r(T)}$$$RNA1{StrandType:ss}|RNA2{StrandType:as}$	45% and 50%
RNA1{r(G)p.r(U)p.r(A)p.r(U)p.r(G)p.r(A)p.r(C)p.r(C)p.r(G)p.r(A)p.r(C)p.r(U)p.r(A)p.r(C)p.r(G)p.r(C)p.r(G)p.r(U)p.r(A)p.r(T)p.r(T)}|RNA2{r(U)p.r(U)p.r(C)p.[una](A)p.r(G)p.r(U)p.r(G)p.r(U)p.r(G)p.r(A)p.r(U)p.r(G)p.r(A)p.r(C)p.r(A)p.r(C)p.r(U)p.r(U)p.r(G)p.r(T)p.r(T)}$$$RNA1{StrandType:ss}|RNA2{StrandType:as}$	94%
RNA1{r(G)p.r(U)p.r(A)p.r(U)p.r(G)p.r(A)p.r(C)p.r(C)p.r(G)p.r(A)p.r(C)p.r(U)p.r(A)p.r(C)p.r(G)p.r(C)p.r(G)p.r(U)p.r(A)p.r(T)p.r(T)}|RNA2{r(U)p.r(U)p.r(C)p.r(A)p.[una](G)p.r(U)p.r(G)p.r(U)p.r(G)p.r(A)p.r(U)p.r(G)p.r(A)p.r(C)p.r(A)p.r(C)p.r(U)p.r(U)p.r(G)p.r(T)p.r(T)}$$$RNA1{StrandType:ss}|RNA2{StrandType:as}$	92%
RNA1{r(G)p.r(U)p.r(A)p.r(U)p.r(G)p.r(A)p.r(C)p.r(C)p.r(G)p.r(A)p.r(C)p.r(U)p.r(A)p.r(C)p.r(G)p.r(C)p.r(G)p.r(U)p.r(A)p.r(T)p.r(T)}|RNA2{r(U)p.r(U)p.r(C)p.r(A)p.r(G)p.[una](U)p.r(G)p.r(U)p.r(G)p.r(A)p.r(U)p.r(G)p.r(A)p.r(C)p.r(A)p.r(C)p.r(U)p.r(U)p.r(G)p.r(T)p.r(T)}$$$RNA1{StrandType:ss}|RNA2{StrandType:as}$	78%
RNA1{r(G)p.r(U)p.r(A)p.r(U)p.r(G)p.r(A)p.r(C)p.r(C)p.r(G)p.r(A)p.r(C)p.r(U)p.r(A)p.r(C)p.r(G)p.r(C)p.r(G)p.r(U)p.r(A)p.r(T)p.r(T)}|RNA2{r(U)p.r(U)p.r(C)p.r(A)p.r(G)p.r(U)p.[una](G)p.r(U)p.r(G)p.r(A)p.r(U)p.r(G)p.r(A)p.r(C)p.r(A)p.r(C)p.r(U)p.r(U)p.r(G)p.r(T)p.r(T)}$$$RNA1{StrandType:ss}|RNA2{StrandType:as}$	86%
RNA1{r(G)p.r(U)p.r(A)p.r(U)p.r(G)p.r(A)p.r(C)p.r(C)p.r(G)p.r(A)p.r(C)p.r(U)p.r(A)p.r(C)p.r(G)p.r(C)p.r(G)p.r(U)p.r(A)p.r(T)p.r(T)}|RNA2{r(U)p.r(U)p.r(C)p.r(A)p.r(G)p.r(U)p.r(G)p.[una](U)p.r(G)p.r(A)p.r(U)p.r(G)p.r(A)p.r(C)p.r(A)p.r(C)p.r(U)p.r(U)p.r(G)p.r(T)p.r(T)}$$$RNA1{StrandType:ss}|RNA2{StrandType:as}$	90%
RNA1{r(G)p.r(U)p.r(A)p.r(U)p.r(G)p.r(A)p.r(C)p.r(C)p.r(G)p.r(A)p.r(C)p.r(U)p.r(A)p.r(C)p.r(G)p.r(C)p.r(G)p.r(U)p.r(A)p.r(T)p.r(T)}|RNA2{r(U)p.r(U)p.r(C)p.r(A)p.r(G)p.r(U)p.r(G)p.r(U)p.[una](G)p.r(A)p.r(U)p.r(G)p.r(A)p.r(C)p.r(A)p.r(C)p.r(U)p.r(U)p.r(G)p.r(T)p.r(T)}$$$RNA1{StrandType:ss}|RNA2{StrandType:as}$	89%
RNA1{r(G)p.r(U)p.r(A)p.r(U)p.r(G)p.r(A)p.r(C)p.r(C)p.r(G)p.r(A)p.r(C)p.r(U)p.r(A)p.r(C)p.r(G)p.r(C)p.r(G)p.r(U)p.r(A)p.r(T)p.r(T)}|RNA2{r(U)p.r(U)p.r(C)p.r(A)p.r(G)p.r(U)p.r(G)p.r(U)p.r(G)p.[una](A)p.r(U)p.r(G)p.r(A)p.r(C)p.r(A)p.r(C)p.r(U)p.r(U)p.r(G)p.r(T)p.r(T)}$$$RNA1{StrandType:ss}|RNA2{StrandType:as}$	23%
RNA1{r(G)p.r(U)p.r(A)p.r(U)p.r(G)p.r(A)p.r(C)p.r(C)p.r(G)p.r(A)p.r(C)p.r(U)p.r(A)p.r(C)p.r(G)p.r(C)p.r(G)p.r(U)p.r(A)p.r(T)p.r(T)}|RNA2{r(U)p.r(U)p.r(C)p.r(A)p.r(G)p.r(U)p.r(G)p.r(U)p.r(G)p.r(A)p.[una](U)p.r(G)p.r(A)p.r(C)p.r(A)p.r(C)p.r(U)p.r(U)p.r(G)p.r(T)p.r(T)}$$$RNA1{StrandType:ss}|RNA2{StrandType:as}$	0%
RNA1{r(G)p.r(U)p.r(A)p.r(U)p.r(G)p.r(A)p.r(C)p.r(C)p.r(G)p.r(A)p.r(C)p.r(U)p.r(A)p.r(C)p.r(G)p.r(C)p.r(G)p.r(U)p.r(A)p.r(T)p.r(T)}|RNA2{r(U)p.r(U)p.r(C)p.r(A)p.r(G)p.r(U)p.r(G)p.r(U)p.r(G)p.r(A)p.r(U)p.[una](G)p.r(A)p.r(C)p.r(A)p.r(C)p.r(U)p.r(U)p.r(G)p.r(T)p.r(T)}$$$RNA1{StrandType:ss}|RNA2{StrandType:as}$	59%
RNA1{r(G)p.r(U)p.r(A)p.r(U)p.r(G)p.r(A)p.r(C)p.r(C)p.r(G)p.r(A)p.r(C)p.r(U)p.r(A)p.r(C)p.r(G)p.r(C)p.r(G)p.r(U)p.r(A)p.r(T)p.r(T)}|RNA2{r(U)p.r(U)p.r(C)p.r(A)p.r(G)p.r(U)p.r(G)p.r(U)p.r(G)p.r(A)p.r(U)p.r(G)p.[una](A)p.r(C)p.r(A)p.r(C)p.r(U)p.r(U)p.r(G)p.r(T)p.r(T)}$$$RNA1{StrandType:ss}|RNA2{StrandType:as}$	74%
RNA1{r(G)p.r(U)p.r(A)p.r(U)p.r(G)p.r(A)p.r(C)p.r(C)p.r(G)p.r(A)p.r(C)p.r(U)p.r(A)p.r(C)p.r(G)p.r(C)p.r(G)p.r(U)p.r(A)p.r(T)p.r(T)}|RNA2{r(U)p.r(U)p.r(C)p.r(A)p.r(G)p.r(U)p.r(G)p.r(U)p.r(G)p.r(A)p.r(U)p.r(G)p.r(A)p.[una](C)p.r(A)p.r(C)p.r(U)p.r(U)p.r(G)p.r(T)p.r(T)}$$$RNA1{StrandType:ss}|RNA2{StrandType:as}$	64%
RNA1{r(G)p.r(U)p.r(A)p.r(U)p.r(G)p.r(A)p.r(C)p.r(C)p.r(G)p.r(A)p.r(C)p.r(U)p.r(A)p.r(C)p.r(G)p.r(C)p.r(G)p.r(U)p.r(A)p.r(T)p.r(T)}|RNA2{r(U)p.r(U)p.r(C)p.r(A)p.r(G)p.r(U)p.r(G)p.r(U)p.r(G)p.r(A)p.r(U)p.r(G)p.r(A)p.r(C)p.[una](A)p.r(C)p.r(U)p.r(U)p.r(G)p.r(T)p.r(T)}$$$RNA1{StrandType:ss}|RNA2{StrandType:as}$	86%
RNA1{r(G)p.r(U)p.r(A)p.r(U)p.r(G)p.r(A)p.r(C)p.r(C)p.r(G)p.r(A)p.r(C)p.r(U)p.r(A)p.r(C)p.r(G)p.r(C)p.r(G)p.r(U)p.r(A)p.r(T)p.r(T)}|RNA2{r(U)p.r(U)p.r(C)p.r(A)p.r(G)p.r(U)p.r(G)p.r(U)p.r(G)p.r(A)p.r(U)p.r(G)p.r(A)p.r(C)p.r(A)p.[una](C)p.r(U)p.r(U)p.r(G)p.r(T)p.r(T)}$$$RNA1{StrandType:ss}|RNA2{StrandType:as}$	29%
RNA1{r(G)p.r(U)p.r(A)p.r(U)p.r(G)p.r(A)p.r(C)p.r(C)p.r(G)p.r(A)p.r(C)p.r(U)p.r(A)p.r(C)p.r(G)p.r(C)p.r(G)p.r(U)p.r(A)p.r(T)p.r(T)}|RNA2{r(U)p.r(U)p.r(C)p.r(A)p.r(G)p.r(U)p.r(G)p.r(U)p.r(G)p.r(A)p.r(U)p.r(G)p.r(A)p.r(C)p.r(A)p.r(C)p.[una](U)p.r(U)p.r(G)p.r(T)p.r(T)}$$$RNA1{StrandType:ss}|RNA2{StrandType:as}$	87%
RNA1{r(G)p.r(U)p.r(A)p.r(U)p.r(G)p.r(A)p.r(C)p.r(C)p.r(G)p.r(A)p.r(C)p.r(U)p.r(A)p.r(C)p.r(G)p.r(C)p.r(G)p.r(U)p.r(A)p.r(T)p.r(T)}|RNA2{r(U)p.r(U)p.r(C)p.r(A)p.r(G)p.r(U)p.r(G)p.r(U)p.r(G)p.r(A)p.r(U)p.r(G)p.r(A)p.r(C)p.r(A)p.r(C)p.r(U)p.[una](U)p.r(G)p.r(T)p.r(T)}$$$RNA1{StrandType:ss}|RNA2{StrandType:as}$	91%
RNA1{r(G)p.r(U)p.r(A)p.r(U)p.r(G)p.r(A)p.r(C)p.r(C)p.r(G)p.r(A)p.r(C)p.r(U)p.r(A)p.r(C)p.r(G)p.r(C)p.r(G)p.r(U)p.r(A)p.r(T)p.r(T)}|RNA2{r(U)p.r(U)p.r(C)p.r(A)p.r(G)p.r(U)p.r(G)p.r(U)p.r(G)p.r(A)p.r(U)p.r(G)p.r(A)p.r(C)p.r(A)p.r(C)p.r(U)p.r(U)p.[una](G)p.r(T)p.r(T)}$$$RNA1{StrandType:ss}|RNA2{StrandType:as}$	82%
RNA1{r(G)p.r(U)p.r(A)p.r(U)p.r(G)p.r(A)p.r(C)p.r(C)p.r(G)p.r(A)p.r(C)p.r(U)p.r(A)p.r(C)p.r(G)p.r(C)p.r(G)p.r(U)p.r(A)p.r(T)p.r(T)}|RNA2{r(U)p.r(U)p.r(C)p.r(A)p.r(G)p.r(U)p.r(G)p.r(U)p.r(G)p.r(A)p.r(U)p.r(G)p.r(A)p.r(C)p.r(A)p.r(C)p.r(U)p.r(U)p.r(G)p.[una](T)p.[una](T)}$$$RNA1{StrandType:ss}|RNA2{StrandType:as}$	81%
RNA1{r(G)p.r(U)p.r(A)p.r(U)p.r(U)p.r(G)p.r(A)p.r(C)p.r(A)p.r(G)p.r(C)p.r(U)p.r(A)p.r(U)p.r(U)p.r(C)p.r(G)p.r(A)p.r(A)p.d(T)p.d(T)}|RNA2{r(U)p.r(U)p.r(C)p.r(G)p.r(A)p.r(A)p.r(U)p.r(A)p.r(G)p.r(C)p.r(U)p.r(G)p.r(U)p.r(C)p.r(A)p.r(A)p.r(U)p.r(A)p.r(C)p.d(T)p.d(T)}$$$RNA1{StrandType:ss}|RNA2{StrandType:as}$	73%
RNA1{r(G)p.r(U)p.r(C)p.m(U)p.r(A)p.m(U)p.r(G)p.r(C)p.m(C)p.r(A)p.r(A)p.r(G)p.r(A)p.r(A)p.r(G)p.r(G)p.r(G)p.r(A)p.r(G)p.r(T)p.r(T)}|RNA2{r(C)p.r(U)p.r(C)p.r(C)p.r(C)p.r(U)p.r(U)p.r(C)p.r(U)p.m(U)p.r(G)p.r(G)p.m(C)p.r(A)p.m(U)p.r(A)p.r(G)p.r(A)p.r(C)p.r(T)p.r(T)}$$$RNA1{StrandType:ss}|RNA2{StrandType:as}$	72%
RNA1{r(G)p.r(U)p.r(C)p.m(U)p.r(A)p.r(U)p.r(G)p.r(C)p.r(C)p.r(A)p.r(A)p.r(G)p.r(A)p.r(A)p.r(G)p.r(G)p.r(G)p.r(A)p.r(G)p.r(T)p.r(T)}|RNA2{r(C)p.r(U)p.r(C)p.r(C)p.r(C)p.r(U)p.r(U)p.r(C)p.r(U)p.r(U)p.r(G)p.r(G)p.r(C)p.r(A)p.m(U)p.r(A)p.r(G)p.r(A)p.r(C)p.r(T)p.r(T)}$$$RNA1{StrandType:ss}|RNA2{StrandType:as}$	76%

Reference: the OligoGym collection
